This is an account of results in article PMC12006963, “Application of Deuterium in an M1 Positive Allosteric Modulator Back-Up Program: The Discovery of VU6045422” (ACS Chemical Neuroscience, 2025).

Molecules are shown by their SMILES.

For one data set, the target named is hERG (Homo sapiens, UniProt Q12809). Further details: method as in PMID 39660766. To be noted: read-out: hERG manual patch clamp IC50; cited from earlier work. A general note: hERG is a cardiac potassium channel; its block is linked to QT prolongation.
Another data set has as its target CYP 3A4 (Homo sapiens, UniProt P08684). Set-up: method as in PMID 39660766. As to conditions: in words; cited from earlier work.
Data set [1] addresses Nicotinic Acetylcholine α3β4 (Homo sapiens, UniProt P30926+P32297). The data set can be described thus: Eurofins radioligand binding.
Another data set addresses CYP 3A5 (Homo sapiens, UniProt P20815). The data set can be described thus: CYP isoform contribution to metabolism: 3A5. The class given is in vitro ADME.
Data set [2] is described as follows: Rat oral dose escalation PK study. Type of data set: in vivo. As to conditions: for AUC(0-t) / Cmax: Sprague-Dawley, plasma, rat, oral. Here is the method: page 9: Brain plasma concentration ratio (Kp) was calculated by dividing brain concentration by plasma concentration for each animal. Unbound brain to unbound plasma concentration ratio (Kp,uu) is calculated using the following formula: Kp,uu = (Brain ng/g x brain fu)/(plasma ng/ml x plasma fu). Pharmacokinetic profiles in rats following oral single escalating doses Single escalating oral dosing in Sprague-Dawley rats was performed at Frontage Laboratories according to their non-GLP Standard Operating Procedure and IACUC protocols. […] At different times, arterial blood was collected from a femoral artery catheter, and compound concentration was determined in plasma by LC-MS/MS following their non-GLP protocol. PK parameters were determined using Phoenix WinNonlin software (version 6.3). In-vitro determination of blood-brain barrier penetration potential Blood-brain barrier penetration was determined using MDR1-MDCK cell monolayers by Absorption Systems, following their protocol. In short, compounds were incubated at […] final concentration on one side of the cell monolayer for 2 hours. Compounds concentration on either side of the monolayer was determined by LC-MS/MS and apparent permeability and efflux ratio were determined as described in Wang, Q. et al.1 Behavioral Manifestations of Seizure Activity To evaluate induction of behavioral manifestation of seizure activity, C57Bl/6 mice received administration of vehicle or 100 mg/kg M1 PAM 5. Compound was formulated in 30% Captisol (pH 7.0) at a concentration of 10 mg/mL and injected i.p. at 10 ml/kg (n = 4). Animals were monitored continuously and scored for behavioral manifestations of seizure activity at 5, 15, 30 min, and 1 h. Behavioral manifestations of seizures were scored using a modified Racine scoring system. Briefly, a score of 0 represents no behavior alterations; score 1, immobility, mouth and facial movements, or facial clonus; score 2, head nodding, tail extension; score 3, forelimb clonus, repetitive movements; score 4, rearing and tonic clonic seizure; and score 5, continuous rearing and falling, severe generalized tonic clonic seizure. Novel Object Recognition Task S9

Data set [3] deals with Purinergic P2Y, Non-Selective. The data set can be described thus: Eurofins radioligand binding. Further details: species or system Rat.
Another data set addresses Adrenergic α2A (Homo sapiens, UniProt P08913). The data set can be described thus: Eurofins radioligand binding.
A further data set deals with Adrenergic β1 (Homo sapiens, UniProt P08588). The data set can be described thus: Eurofins radioligand binding.
Adrenergic β1, sequence (P08588 whole entry): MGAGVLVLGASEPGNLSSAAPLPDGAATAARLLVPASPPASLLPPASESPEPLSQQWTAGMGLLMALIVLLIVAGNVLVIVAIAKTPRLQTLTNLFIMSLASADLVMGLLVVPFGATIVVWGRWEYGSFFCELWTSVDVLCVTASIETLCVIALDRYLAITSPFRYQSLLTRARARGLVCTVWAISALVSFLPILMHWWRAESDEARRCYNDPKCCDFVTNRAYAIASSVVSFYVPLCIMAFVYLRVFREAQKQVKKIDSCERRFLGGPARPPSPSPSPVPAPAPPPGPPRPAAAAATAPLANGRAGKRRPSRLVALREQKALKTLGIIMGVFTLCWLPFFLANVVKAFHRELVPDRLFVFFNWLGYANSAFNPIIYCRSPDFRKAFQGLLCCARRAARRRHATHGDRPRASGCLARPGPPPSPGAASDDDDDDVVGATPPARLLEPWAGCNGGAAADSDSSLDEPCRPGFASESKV
In the next data set the target is Interleukin IL-1 R1 (Homo sapiens, UniProt P14778). The data set can be described thus: Eurofins radioligand binding.
Interleukin IL-1 R1, sequence (P14778 18-569): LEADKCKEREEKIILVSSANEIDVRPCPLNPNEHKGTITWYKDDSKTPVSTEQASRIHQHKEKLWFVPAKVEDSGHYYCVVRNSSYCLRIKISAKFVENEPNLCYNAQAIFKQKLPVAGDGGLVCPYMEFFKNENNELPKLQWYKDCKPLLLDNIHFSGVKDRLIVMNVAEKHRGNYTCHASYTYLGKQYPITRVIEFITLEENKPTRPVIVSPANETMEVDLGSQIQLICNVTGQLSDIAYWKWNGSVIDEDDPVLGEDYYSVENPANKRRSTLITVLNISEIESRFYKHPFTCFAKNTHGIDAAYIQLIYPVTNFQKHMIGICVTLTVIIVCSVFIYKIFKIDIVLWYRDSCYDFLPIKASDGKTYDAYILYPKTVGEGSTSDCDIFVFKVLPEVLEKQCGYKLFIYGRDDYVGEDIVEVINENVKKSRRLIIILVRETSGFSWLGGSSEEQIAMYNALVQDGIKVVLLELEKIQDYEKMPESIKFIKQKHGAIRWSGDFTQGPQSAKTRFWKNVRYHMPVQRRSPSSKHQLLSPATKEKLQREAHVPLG
The next data set deals with Prostanoid EP4 (Homo sapiens, UniProt P35408). The data set can be described thus: Eurofins radioligand binding.
Prostanoid EP4, sequence (P35408 whole entry): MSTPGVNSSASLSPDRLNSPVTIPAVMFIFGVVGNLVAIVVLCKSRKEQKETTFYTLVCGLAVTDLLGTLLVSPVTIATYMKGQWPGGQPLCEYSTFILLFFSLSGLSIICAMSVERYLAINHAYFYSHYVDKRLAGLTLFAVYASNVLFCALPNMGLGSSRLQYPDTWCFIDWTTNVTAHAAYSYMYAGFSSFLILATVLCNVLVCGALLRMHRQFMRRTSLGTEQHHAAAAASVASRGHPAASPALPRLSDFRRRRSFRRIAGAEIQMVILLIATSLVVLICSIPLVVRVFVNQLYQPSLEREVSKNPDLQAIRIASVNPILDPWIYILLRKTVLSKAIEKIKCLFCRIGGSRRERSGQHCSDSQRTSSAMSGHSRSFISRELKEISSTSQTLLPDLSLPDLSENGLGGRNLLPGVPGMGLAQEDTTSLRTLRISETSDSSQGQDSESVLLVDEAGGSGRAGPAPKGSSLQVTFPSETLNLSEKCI
The next data set concerns the target Adrenergic β2 (Homo sapiens, UniProt P07550). The data set can be described thus: Eurofins radioligand binding.
Data set [4] has as its target Platelet Activating Factor (PAF) (Homo sapiens, UniProt P25105). The data set can be described thus: Eurofins radioligand binding.
In another data set the target is Estrogen ERα (Homo sapiens, UniProt P03372). The data set can be described thus: Eurofins radioligand binding.
Data set [5] has as its system Glutamate, NMDA, Phencyclidine. The data set can be described thus: Eurofins radioligand binding. Further details: species or system Rat.
The target in the next data set is Muscarinic M1 (Homo sapiens, UniProt P11229). The data set can be described thus: Eurofins radioligand binding.
The next data set concerns the target CYP 2D6 (Homo sapiens, UniProt P10635). The data set can be described thus: CYP isoform contribution to metabolism: 2D6. The class given is in vitro ADME.
In a further data set the test system is Purinergic P2X. The data set can be described thus: Eurofins radioligand binding. Set-up: species or system Rat.
The next data set addresses Potassium Channel [KATP] (Cricetus cricetus, UniProt Q09427). The data set can be described thus: Eurofins radioligand binding. Set-up: species or system Hamster.
The nature of data set [6]: Dog MTD with pharmacokinetics study. Type of data set: in vivo. To be noted: for AUC / Cmax: dog MTD, plasma. From the text: To this end, we prepared a 200 g lot of PAM 5 and performed, in parallel, a dog maximum tolerated dose (MTD) with a pharmacokinetics study and a 14-day rat exploratory toxicology and toxicokinetic study, quantifying plasma Cmax and AUC for both parent 5 and metabolite 6. […] Moreover, while exposure increased with dose, it was nonlinear. […] The series was terminated based on (1) poor and less than dose-proportional increases in systemic exposure, (2) lack of a kinetic isotope effect to diminish production of 6 in dogs and rats, and (3) strong likelihood of even higher concentrations of 6 to be present in man.

Another data set concerns CYP. The data set can be described thus: Time-dependent CYP inhibition. Type of data set: in vitro ADME. As to conditions: in words.
For the next data set, the system named is Rolipram. The data set can be described thus: Eurofins radioligand binding. Further details: species or system Rat.
A further data set addresses Neuropeptide Y Y2 (Homo sapiens, UniProt P49146). The data set can be described thus: Eurofins radioligand binding.
For the next data set, the target named is Dopamine D1 (Homo sapiens, UniProt P21728). The data set can be described thus: Eurofins radioligand binding.
In the next data set the target is Calcium Channel N-Type (Rattus norvegicus, UniProt Q02294). The data set can be described thus: Eurofins radioligand binding.
Another data set concerns the target Adrenergic α1A (Homo sapiens, UniProt P35348). The data set can be described thus: Eurofins radioligand binding.

Adrenergic α2A, sequence (P08913 whole entry): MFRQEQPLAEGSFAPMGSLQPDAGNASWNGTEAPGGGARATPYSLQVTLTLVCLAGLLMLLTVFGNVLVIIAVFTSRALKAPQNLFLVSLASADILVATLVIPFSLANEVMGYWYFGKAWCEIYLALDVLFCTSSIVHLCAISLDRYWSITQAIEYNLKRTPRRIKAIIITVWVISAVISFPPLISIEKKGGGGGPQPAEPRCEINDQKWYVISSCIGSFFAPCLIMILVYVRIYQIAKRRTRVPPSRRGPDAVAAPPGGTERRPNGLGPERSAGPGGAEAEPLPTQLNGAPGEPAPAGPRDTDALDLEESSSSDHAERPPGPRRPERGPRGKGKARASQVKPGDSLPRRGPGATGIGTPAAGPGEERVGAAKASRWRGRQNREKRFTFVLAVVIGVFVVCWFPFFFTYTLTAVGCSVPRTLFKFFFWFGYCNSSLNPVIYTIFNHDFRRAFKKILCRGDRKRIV
CYP 2D6, sequence (P10635 whole entry, canonical isoform): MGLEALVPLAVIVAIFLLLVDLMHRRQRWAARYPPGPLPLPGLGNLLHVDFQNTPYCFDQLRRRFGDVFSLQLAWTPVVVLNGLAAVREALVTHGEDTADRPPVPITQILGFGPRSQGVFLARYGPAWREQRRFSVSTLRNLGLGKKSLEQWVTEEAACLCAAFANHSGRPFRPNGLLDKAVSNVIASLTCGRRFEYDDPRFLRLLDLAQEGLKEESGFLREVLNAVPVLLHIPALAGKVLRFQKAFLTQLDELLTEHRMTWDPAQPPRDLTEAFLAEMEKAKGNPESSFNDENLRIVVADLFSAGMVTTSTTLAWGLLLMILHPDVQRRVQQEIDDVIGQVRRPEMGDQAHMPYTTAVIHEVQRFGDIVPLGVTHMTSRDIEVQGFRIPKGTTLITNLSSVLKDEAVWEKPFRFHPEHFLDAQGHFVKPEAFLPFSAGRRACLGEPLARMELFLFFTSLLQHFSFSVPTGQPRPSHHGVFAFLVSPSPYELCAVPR
CYP 3A5, sequence (P20815 whole entry, canonical isoform): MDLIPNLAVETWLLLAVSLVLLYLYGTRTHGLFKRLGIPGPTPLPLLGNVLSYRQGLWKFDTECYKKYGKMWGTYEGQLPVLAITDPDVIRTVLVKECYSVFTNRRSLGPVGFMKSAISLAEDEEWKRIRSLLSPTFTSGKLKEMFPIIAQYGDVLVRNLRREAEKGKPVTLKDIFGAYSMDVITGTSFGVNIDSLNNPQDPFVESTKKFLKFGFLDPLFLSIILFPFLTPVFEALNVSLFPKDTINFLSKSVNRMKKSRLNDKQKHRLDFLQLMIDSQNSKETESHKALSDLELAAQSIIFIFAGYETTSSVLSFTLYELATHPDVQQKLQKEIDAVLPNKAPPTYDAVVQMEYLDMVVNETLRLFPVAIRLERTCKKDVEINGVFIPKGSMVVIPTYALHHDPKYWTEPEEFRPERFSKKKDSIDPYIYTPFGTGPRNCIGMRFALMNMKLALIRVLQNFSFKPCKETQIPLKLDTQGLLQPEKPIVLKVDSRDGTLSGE
Neuropeptide Y Y2, sequence (P49146 whole entry): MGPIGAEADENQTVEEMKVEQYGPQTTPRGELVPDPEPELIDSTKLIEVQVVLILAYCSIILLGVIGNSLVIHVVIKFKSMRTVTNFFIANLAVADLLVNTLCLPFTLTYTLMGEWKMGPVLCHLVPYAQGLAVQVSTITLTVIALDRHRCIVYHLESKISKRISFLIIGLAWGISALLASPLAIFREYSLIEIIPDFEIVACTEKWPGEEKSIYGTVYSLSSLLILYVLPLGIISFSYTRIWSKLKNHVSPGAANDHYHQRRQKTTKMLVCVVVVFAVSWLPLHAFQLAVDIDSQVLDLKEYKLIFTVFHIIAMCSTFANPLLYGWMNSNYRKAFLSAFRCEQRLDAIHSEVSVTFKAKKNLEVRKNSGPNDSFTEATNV
CYP 3A4, sequence (P08684 whole entry): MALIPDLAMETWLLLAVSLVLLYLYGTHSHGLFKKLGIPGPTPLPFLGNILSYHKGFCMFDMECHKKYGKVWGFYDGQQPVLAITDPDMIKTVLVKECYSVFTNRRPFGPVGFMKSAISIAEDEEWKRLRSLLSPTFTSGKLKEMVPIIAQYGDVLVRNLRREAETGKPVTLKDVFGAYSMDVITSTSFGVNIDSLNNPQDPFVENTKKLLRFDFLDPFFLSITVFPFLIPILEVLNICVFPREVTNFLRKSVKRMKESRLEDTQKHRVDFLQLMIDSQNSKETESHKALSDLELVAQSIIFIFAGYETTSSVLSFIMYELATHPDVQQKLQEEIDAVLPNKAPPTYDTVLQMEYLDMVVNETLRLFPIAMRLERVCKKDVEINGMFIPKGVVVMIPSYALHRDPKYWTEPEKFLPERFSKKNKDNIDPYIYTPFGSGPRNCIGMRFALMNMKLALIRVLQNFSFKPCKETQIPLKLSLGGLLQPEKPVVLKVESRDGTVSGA
Nicotinic Acetylcholine α3β4, sequence (P32297 32-505): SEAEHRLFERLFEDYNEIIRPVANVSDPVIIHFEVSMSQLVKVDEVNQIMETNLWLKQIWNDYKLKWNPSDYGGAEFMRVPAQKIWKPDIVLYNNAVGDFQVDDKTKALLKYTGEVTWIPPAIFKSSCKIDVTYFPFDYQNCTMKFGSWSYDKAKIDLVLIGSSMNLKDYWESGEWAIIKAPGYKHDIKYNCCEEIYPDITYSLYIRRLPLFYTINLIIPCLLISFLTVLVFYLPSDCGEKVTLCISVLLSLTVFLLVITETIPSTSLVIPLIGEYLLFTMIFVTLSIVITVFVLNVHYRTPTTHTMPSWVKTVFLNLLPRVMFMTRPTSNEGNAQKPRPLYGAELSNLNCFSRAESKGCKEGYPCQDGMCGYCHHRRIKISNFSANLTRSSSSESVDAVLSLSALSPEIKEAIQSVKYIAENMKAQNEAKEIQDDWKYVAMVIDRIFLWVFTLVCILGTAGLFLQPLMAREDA
Nicotinic Acetylcholine α3β4, sequence (P30926 22-498): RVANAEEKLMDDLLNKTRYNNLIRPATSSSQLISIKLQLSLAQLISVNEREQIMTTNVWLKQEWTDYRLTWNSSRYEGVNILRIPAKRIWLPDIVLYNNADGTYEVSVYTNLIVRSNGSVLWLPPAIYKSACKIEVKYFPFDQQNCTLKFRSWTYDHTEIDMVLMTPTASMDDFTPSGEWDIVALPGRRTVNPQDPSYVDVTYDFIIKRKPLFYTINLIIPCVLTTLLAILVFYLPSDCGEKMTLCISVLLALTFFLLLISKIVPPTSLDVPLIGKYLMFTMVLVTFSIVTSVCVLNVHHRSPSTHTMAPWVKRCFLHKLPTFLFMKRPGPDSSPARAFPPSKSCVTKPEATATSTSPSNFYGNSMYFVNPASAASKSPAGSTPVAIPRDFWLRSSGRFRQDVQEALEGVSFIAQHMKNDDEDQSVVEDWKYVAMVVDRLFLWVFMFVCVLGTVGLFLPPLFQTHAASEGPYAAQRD

In the case of `Cn1cc2c(-c3cc(F)c(CN4Cc5ncccc5C4=O)c(F)c3)cccc2n1` [compound 1], on hERG, the IC50 was 12 µM. For the same compound, on CYP 3A4, the “CYP isoform responsible for metabolism” value is reported as “solely metabolized by CYP 3A4”.
Consider `[2H]C1([2H])c2ncccc2C(=O)N1Cc1c(F)cc(-c2cccc3nn(C([2H])([2H])[2H])cc23)cc1F` [compound 5], for which the inhibition at 10 µM in data set [1] is -7%; on Adrenergic α2A, 58%; on Adrenergic β1, 2%; at Interleukin IL-1 R1, 8%; at Prostanoid EP4, -3%; on Adrenergic β2 it was -1%. Moreover, the inhibition at 10 µM was 22% in data set [4]; 10% at Estrogen ERα; 0% on Muscarinic M1; 24% at Potassium Channel [KATP]; -3% at Neuropeptide Y Y2; -3% at Dopamine D1. Further, the inhibition at 10 µM on Calcium Channel N-Type is -2%; at Adrenergic α1A it was 8%. Further, the “contribution of CYP 3A5 to metabolism” value at CYP 3A5 worked out at 5.8%. The AUC(0-t) in data set [2] (3 mg/kg) turned out to be 8390 ng·h/mL; in data set [2] (10 mg/kg), 23900 ng·h/mL; in [2] (30 mg/kg), 55600 ng·h/mL; in data set [2] (100 mg/kg), 87800 ng·h/mL. The peak concentration (Cmax) was found to be 1250 ng/mL in data set [2] (3 mg/kg); 3380 ng/mL in data set [2] (10 mg/kg); 6020 ng/mL in data set [2] (30 mg/kg); 7850 ng/mL in data set [2] (100 mg/kg); 2400 ng/mL in data set [6] (30 mg/kg PO of 5); 3620 ng/mL in [6] (300 mg/kg PO of 5). In [6] (1000 mg/kg PO of 5), this compound gave a peak concentration (Cmax) of 5560 ng/mL. For the same compound, the “cholinergic signs or adverse events” value in data set [2] (rat oral dose escalation 3-100 mg/kg) is “no cholinergic signs or adverse events were noted”. Besides, the “% Inhibition at 10 µM” value is recorded as 9% in data set [3], -1% in data set [5], 4% in the data set with Purinergic P2X and 10% in the data set with Rolipram. Also, the “contribution of CYP 2D6 to metabolism” value on CYP 2D6 was 1.6%. Further, the AUC in data set [6] (30 mg/kg PO of 5) came out at 34900 ng·h/mL; in [6] (300 mg/kg PO of 5) it was 68000 ng·h/mL; in data set [6] (1000 mg/kg PO of 5), 103000 ng·h/mL. Besides, in [6] (dog, in vivo, po), the “tolerability in dog MTD” value is recorded as “well-tolerated”. Also, the “time-dependent CYP inhibition liability” value in the data set on CYP is recorded as “no time-dependent CYP inhibition or CYP induction liabilities”.

For orientation: IC50 means the point on the concentration scale where inhibition reaches its midpoint. Usually inhibition stands for the relative decrease from the control value, in per cent. In general, AUC(0-t) refers to exposure summed from dosing to a finite time, without extrapolation to infinity. Read a low AUC(0-t) as less exposure. In general, Cmax refers to the peak of the concentration-time curve. As a reminder, the % Inhibition is the relative decrease from the control value, in per cent. For orientation: AUC means concentration integrated over time.
